20 molecules from patent US20230322767A1, “ARYL SUBSTITUTED PYRROLO-PYRIDINONES AND THERAPEUTIC USES THEREOF” (Bayer Aktiengesellschaft, priority 2020, published 2023) can be followed below.

Format in all cases: biochemical
Experiment [1] concerns the target wild-type Epidermal Growth Factor Receptor (EGFR) (Homo sapiens (Human), UniProt P00533). Nature of the experiment: WT-EGFR Kinase Assay (TR-FRET, 2 mM ATP). An outline of the steps:
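GST-tagged human EGFR (R669–A1210, Sf9-expressed) preincubated 15 min at 22° C with compound in pH 7.0 Hepes/MgCl2 buffer, then reacted at 2 mM ATP with a biotinylated peptide substrate. Phosphorylation detected by TR-FRET (streptavidin-XL665, Tb-cryptate anti-phosphotyrosine) as the 665/620 nm emission ratio.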
In general terms: Time-resolved FRET reads energy transfer from a long-lived donor to a nearby acceptor.

A further experiment addresses CSNK1D (Homo sapiens (Human), UniProt P48730). Nature of the experiment: CSNK1D Assay (ADP-Glo, 1 μM ATP). Particulars: median, read-out: CSNK1D IC50 [mol/l] (median). In short, it runs like this:
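Enzyme preincubated with compound 15 min at 22° C in 50 mM HEPES pH 7.5 buffer with 10 mM MgCl2, 1 mM DTT; kinase reaction run at 1 μM ATP with biotinylated peptide substrate. ADP formed was detected by ADP-Glo luminescence as the measure of activity.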
A general note: In ADP-Glo the light output rises with the ADP produced.

The target of a further experiment is CSNK1A1 (Homo sapiens (Human), UniProt P48729). The experiment is described as follows: CSNK1A1 Assay 2 (ADP-Glo, 1 μM ATP). The following applies: median, read-out: CSNK1A1 Assay 2 IC50 [mol/l] (median). In short, it runs like this:
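Enzyme (~0.0375 ng/μL) preincubated 15 min at 22° C with compound in HEPES pH 7.5 buffer, then reacted with 1 μM ATP and biotin-Ahx-KRRRAL-pS-VASLPGL peptide. ADP product measured by ADP-Glo luminescence after 1 h ATP depletion and 1 h detection at 22° C.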

Where [2] appears, read: EGFR Wildtyp 2 mM ATP IC50 [mol/l] (median), median or individual measurements.
The mark [3] stands for this setting: read-out: EGFR Wildtyp 2 mM ATP IC50 [mol/l] (median), median or individual measurements.

pIC50: −log10 of the molar value. Like-named read-outs stand apart in the source and are kept apart here.

Chain of wild-type Epidermal Growth Factor Receptor (EGFR) (P00533 669-1210): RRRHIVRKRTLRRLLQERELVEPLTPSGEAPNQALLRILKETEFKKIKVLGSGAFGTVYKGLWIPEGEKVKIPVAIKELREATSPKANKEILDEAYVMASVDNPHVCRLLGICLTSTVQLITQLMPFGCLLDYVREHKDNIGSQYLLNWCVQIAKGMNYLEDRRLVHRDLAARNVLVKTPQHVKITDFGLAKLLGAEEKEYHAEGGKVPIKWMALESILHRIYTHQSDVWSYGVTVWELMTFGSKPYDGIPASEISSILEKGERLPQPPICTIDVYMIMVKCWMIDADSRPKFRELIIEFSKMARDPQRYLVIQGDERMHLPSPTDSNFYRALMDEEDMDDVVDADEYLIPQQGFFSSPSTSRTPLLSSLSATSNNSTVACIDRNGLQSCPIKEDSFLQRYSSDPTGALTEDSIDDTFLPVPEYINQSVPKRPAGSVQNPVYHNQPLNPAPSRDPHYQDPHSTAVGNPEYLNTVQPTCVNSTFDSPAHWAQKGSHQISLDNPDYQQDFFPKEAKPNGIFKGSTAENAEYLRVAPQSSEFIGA
Chain of CSNK1A1 (P48729 whole entry): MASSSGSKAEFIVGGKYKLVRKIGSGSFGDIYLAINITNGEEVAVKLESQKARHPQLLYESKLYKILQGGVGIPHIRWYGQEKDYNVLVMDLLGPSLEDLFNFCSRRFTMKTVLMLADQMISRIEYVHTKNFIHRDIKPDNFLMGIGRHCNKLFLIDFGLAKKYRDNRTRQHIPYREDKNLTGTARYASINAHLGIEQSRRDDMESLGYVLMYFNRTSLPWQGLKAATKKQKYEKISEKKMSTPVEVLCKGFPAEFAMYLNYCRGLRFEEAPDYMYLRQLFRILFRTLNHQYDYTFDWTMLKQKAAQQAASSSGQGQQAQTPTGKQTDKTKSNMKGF
Chain of CSNK1D (P48730 whole entry): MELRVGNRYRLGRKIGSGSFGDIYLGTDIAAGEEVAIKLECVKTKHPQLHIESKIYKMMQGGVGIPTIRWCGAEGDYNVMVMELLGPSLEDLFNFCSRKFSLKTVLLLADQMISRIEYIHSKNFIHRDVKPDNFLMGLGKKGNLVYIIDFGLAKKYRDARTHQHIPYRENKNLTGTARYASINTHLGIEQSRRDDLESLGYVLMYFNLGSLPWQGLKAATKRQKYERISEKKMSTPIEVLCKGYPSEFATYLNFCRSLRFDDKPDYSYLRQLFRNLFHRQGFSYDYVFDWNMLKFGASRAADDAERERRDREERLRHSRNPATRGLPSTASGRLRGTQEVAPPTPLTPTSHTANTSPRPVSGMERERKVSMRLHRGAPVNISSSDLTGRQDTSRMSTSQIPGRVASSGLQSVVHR

Regarding `Cn1cc(CC(F)F)c2[nH]c(-c3ccnc(NC(=O)C(CC(F)F)c4ccc(F)cc4)c3)c(-c3ccccc3)c2c1=O` (single isomer, unassigned) [Example 149, N-{4-[7-(2,2-difluoroethyl)-5-methyl-4-oxo-3-phenyl-4,5-dihydro-1H-pyrrolo[3,2-c]pyridin-2-yl]pyridin-2-yl}-4,4-difluoro-2-(4-fluorophenyl)butanamide], the pIC50 was below 4.70 in experiment [1] (setting [2]), 8.42 on CSNK1D and 8.43 at CSNK1A1.
Take `CN1CCc2[nH]c(-c3ccnc(NC(=O)Cc4ccc(C(=O)N5CCNCC5)cc4)c3)c(-c3ccc(F)cc3)c2C1=O` [Example 144, N-{4-[3-(4-fluorophenyl)-5-methyl-4-oxo-4,5,6,7-tetrahydro-1H-pyrrolo[3,2-c]pyridin-2-yl]pyridin-2-yl}-2-[4-(piperazine-1-carbonyl)phenyl]acetamide]: the pIC50 in experiment [1] (setting [3]) was 5.44; at CSNK1D, 8.52; at CSNK1A1, 8.70.
As for `CC(C(=O)Nc1cc(-c2[nH]c3ccn(C)c(=O)c3c2-c2cccc(O)c2)ccn1)c1ccc(F)cc1` (racemic) [Example 113, 2-(4-fluorophenyl)-N-{4-[3-(3-hydroxyphenyl)-5-methyl-4-oxo-4,5-dihydro-1H-pyrrolo[3,2-c]pyridin-2-yl]pyridin-2-yl}propanamide], the pIC50 was below 4.70 in experiment [1] (setting [2]), 7.48 on CSNK1D and 7.49 at CSNK1A1.
With `CC(C(=O)Nc1cc(-c2[nH]c3ccn(C)c(=O)c3c2-c2ccc(F)c(F)c2)ccn1)c1ccc(F)cc1` (racemic) [Example 114, N-{4-[3-(3,4-difluorophenyl)-5-methyl-4-oxo-4,5-dihydro-1H-pyrrolo[3,2-c]pyridin-2-yl]pyridin-2-yl}-2-(4-fluorophenyl)propanamide], the pIC50 is below 4.70 in experiment [1] (setting [2]), 8.17 at CSNK1D and 8.32 at CSNK1A1.
For `CN1C(=O)c2c([nH]c(-c3ccnc(NC(=O)C(CC(F)F)c4ccc(F)cc4)c3)c2-c2ccccc2)CC12CC2` (racemic) [Example 80, 4,4-difluoro-2-(4-fluorophenyl)-N-[4-(5′-methyl-4′-oxo-3′-phenyl-1′,4′,5′,7′-tetrahydrospiro-[cyclopropane-1,6′-pyrrolo[3,2-c]pyridin]-2′-yl)pyridin-2-yl]butanamide], the values for the pIC50 (in experiment [1] (setting [2]); on CSNK1D; on CSNK1A1) were below 4.70, 8.29 and 8.33, respectively.
On the same counts, the results for `CC(C(=O)Nc1cc(-c2[nH]c3c(c2-c2ccccc2)C(=O)NCC3)ccn1)c1ccc(F)cc1` (racemic) [Example 74, 2-(4-fluorophenyl)-N-[4-(4-oxo-3-phenyl-4,5,6,7-tetrahydro-1H-pyrrolo[3,2-c]pyridin-2-yl)pyridin-2-yl]propanamide] are below 4.70, 8.52 and 8.80.
On the same counts, the results for `CN1CCc2[nH]c(-c3ccnc(NC(=O)C(CC(F)F)c4ccc(F)cc4)c3)c(-c3cc(F)ccc3C#N)c2C1=O` (racemic) [Example 128, N-{4-[3-(2-cyano-5-fluorophenyl)-5-methyl-4-oxo-4,5,6,7-tetrahydro-1H-pyrrolo[3,2-c]pyridin-2-yl]pyridin-2-yl}-4,4-difluoro-2-(4-fluorophenyl)butanamide] are below 4.70, 7.92 and 7.85.
On to `CC(C(=O)Nc1cc(-c2[nH]c3c(c2-c2cccnc2)C(=O)NC(C)(C)C3)ccn1)c1ccc(F)cc1` (single isomer, unassigned) [Example 99, N-{4-[6,6-dimethyl-4-oxo-3-(pyridin-3-yl)-4,5,6,7-tetrahydro-1H-pyrrolo[3,2-c]pyridin-2-yl]pyridin-2-yl}-2-(4-fluorophenyl)propanamide], for which the results for the pIC50 (in experiment [1] (setting [3]); at CSNK1D; at CSNK1A1) were below 4.70, 8.26 and 8.37, respectively.
`CC(C(=O)Nc1cc(-c2[nH]c3ccn(C)c(=O)c3c2-c2ccc(F)cc2)ccn1)c1ccc(F)cc1` (racemic) [Example 100, 2-(4-fluorophenyl)-N-{4-[3-(4-fluorophenyl)-5-methyl-4-oxo-4,5-dihydro-1H-pyrrolo[3,2-c]pyridin-2-yl]pyridin-2-yl}propanamide]: the pIC50 in experiment [1] (setting [2]) is below 4.70; on CSNK1D, 8.07; on CSNK1A1 it was 8.23.
Regarding `CC(C(=O)Nc1cc(-c2[nH]c3ccn(C)c(=O)c3c2-c2ccc(O)cc2)ccn1)c1ccc(F)cc1` (racemic) [Example 119, 2-(4-fluorophenyl)-N-{4-[3-(4-hydroxyphenyl)-5-methyl-4-oxo-4,5-dihydro-1H-pyrrolo[3,2-c]pyridin-2-yl]pyridin-2-yl}propanamide], the pIC50 is below 4.70 in experiment [1] (setting [2]), 7.96 at CSNK1D and 7.82 at CSNK1A1.
Turning to `O=C(Cc1ccc(F)cc1)Nc1cc(-c2[nH]c3cc[nH]c(=O)c3c2-c2ccccc2)ccn1` [Example 73, 2-(4-fluorophenyl)-N-[4-(4-oxo-3-phenyl-4,5-dihydro-1H-pyrrolo[3,2-c]pyridin-2-yl)pyridin-2-yl]acetamide], the pIC50 in experiment [1] (setting [3]) was below 4.70; on CSNK1D, 8.27; on CSNK1A1, 8.72.
Turning to `CC(C(=O)Nc1cc(-c2[nH]c3ccn(C)c(=O)c3c2-c2ccccc2)ccn1)c1ccc(F)cc1` (racemic) [Example 103, 2-(4-fluorophenyl)-N-[4-(5-methyl-4-oxo-3-phenyl-4,5-dihydro-1H-pyrrolo[3,2-c]pyridin-2-yl)pyridin-2-yl]propanamide], the values for the pIC50 (in experiment [1] (setting [2]); on CSNK1D; on CSNK1A1) were below 4.70, 7.96 and 8.30, respectively.
On the same counts, the results for `CC(C(=O)Nc1cc(-c2[nH]c3ccn(C)c(=O)c3c2-c2ccc(F)cc2)ccn1)c1ccc(F)cc1` (single isomer, unassigned; (-)) [Example 101, (−)-2-(4-fluorophenyl)-N-{4-[3-(4-fluorophenyl)-5-methyl-4-oxo-4,5-dihydro-1H-pyrrolo[3,2-c]pyridin-2-yl]pyridin-2-yl}propanamide] are 7.49, 8.25 and 7.92.
On to `Cn1ccc2[nH]c(-c3ccnc(NC(=O)Cc4ccc(F)cc4)c3)c(-c3ccccn3)c2c1=O` [Example 146, 2-(4-fluorophenyl)-N-{4-[5-methyl-4-oxo-3-(pyridin-2-yl)-4,5-dihydro-1H-pyrrolo[3,2-c]pyridin-2-yl]pyridin-2-yl}acetamide], for which the pIC50 in experiment [1] (setting [3]) is below 4.70; at CSNK1D it was 8.36; on CSNK1A1, 8.48.
Turning to `CC(C(=O)Nc1cc(-c2[nH]c3ccn(C)c(=O)c3c2-c2cc(F)ccc2F)ccn1)c1ccc(F)cc1` (racemic) [Example 120, N-{4-[3-(2,5-difluorophenyl)-5-methyl-4-oxo-4,5-dihydro-1H-pyrrolo[3,2-c]pyridin-2-yl]pyridin-2-yl}-2-(4-fluorophenyl)propanamide], the results for the pIC50 (in experiment [1] (setting [2]); on CSNK1D; at CSNK1A1) were below 4.70, 8.09 and 8.19, respectively.
With `CC(C(=O)Nc1cc(-c2[nH]c3c(c2-c2ccc(F)cc2)C(=O)NC(C)(C)C3)ccn1)c1ccc(F)cc1` (single isomer, unassigned) [Example 96, 2-(4-fluorophenyl)-N-{4-[3-(4-fluorophenyl)-6,6-dimethyl-4-oxo-4,5,6,7-tetrahydro-1H-pyrrolo[3,2-c]pyridin-2-yl]pyridin-2-yl}propanamide], the pIC50 in experiment [1] (setting [3]) was below 4.70; on CSNK1D, 8.70; at CSNK1A1, 8.89.
Take `Cc1cccc(-c2c(-c3ccnc(NC(=O)C(C)c4ccc(F)cc4)c3)[nH]c3c2C(=O)NC(C)(C)C3)c1` (racemic) [Example 88, N-{4-[6,6-dimethyl-3-(3-methylphenyl)-4-oxo-4,5,6,7-tetrahydro-1H-pyrrolo[3,2-c]pyridin-2-yl]pyridin-2-yl}-2-(4-fluorophenyl)propanamide]: the pIC50 is below 4.70 in experiment [1] (setting [2]), 7.96 at CSNK1D and 8.07 on CSNK1A1.
The corresponding values for `Cn1ccc2[nH]c(-c3ccnc(NC(=O)C(CC(F)F)c4ccc(F)cc4)c3)c(-c3ccc(F)cc3)c2c1=O` (racemic) [Example 107, 4,4-difluoro-2-(4-fluorophenyl)-N-{4-[3-(4-fluorophenyl)-5-methyl-4-oxo-4,5-dihydro-1H-pyrrolo[3,2-c]pyridin-2-yl]pyridin-2-yl}butanamide] are below 4.70, 8.36 and 8.46.
The corresponding values for `CN1CCc2[nH]c(-c3ccnc(NC(=O)C(CC(F)F)c4ccc(F)cc4)c3)c(-c3ccc(F)cc3F)c2C1=O` (racemic) [Example 66, N-{4-[3-(2,4-difluorophenyl)-5-methyl-4-oxo-4,5,6,7-tetrahydro-1H-pyrrolo[3,2-c]pyridin-2-yl]pyridin-2-yl}-4,4-difluoro-2-(4-fluorophenyl)butanamide] are below 4.70, 8.49 and 8.36.
As to `CC(C(=O)Nc1cc(-c2[nH]c3c(c2-c2ccccc2)C(=O)N(C)CC3)ccn1)c1ccncc1` (single isomer, unassigned) [Example 155, N-[4-(5-methyl-4-oxo-3-phenyl-4,5,6,7-tetrahydro-1H-pyrrolo[3,2-c]pyridin-2-yl)pyridin-2-yl]-2-(pyridin-4-yl)propanamide], the pIC50 is below 4.70 in experiment [1] (setting [2]), 8.70 at CSNK1D and 8.89 on CSNK1A1.
